# Measurements from PMC12371361 (Frontiers in Immunology, 2025).
# Residues, ends and D or L forms follow the SMILES beside them.
# Key:
# HLA-B*35:01 = HLA-B*35:01 (Homo sapiens, UniProt P01889, A329T/A93T/A95T/C349S/D201E/D98Y/E176V/E187L/E204Q/E69T/I218V/K202T/L119I/Q94N/R155S/R180L/S121R/S35A/S48A/T118I/V127L/V306I/V36M/Y140S/Y91F); assay: biochemical
# Experimental: (§1) The affinity of peptide/HLA binding was determined as described before ([21], [22]). Briefly, biotinylated HLA Class I heavy chains were denatured and diluted into refolding buffer containing β-mercaptoethanol and varying concentrations of the test/control peptides. The mixtures were incubated with agitation at room temperature for 20–24 hours to enable peptide/HLA complex formation. The solutions containing the complexes were transferred to streptavidin plates and incubated for 30 minutes. Plates were then developed using ELISA. Absorbance measured at 450 nm was graphed against the varying concentrations of the test peptide used. The affinity of peptide/HLA binding was determined by calculating the EC50, defined as the peptide concentration resulting in half saturation. Peptides with an EC50 under 100 nM were classified as high affinity binders.
# [1] = test system: AAV9 capsid-specific CD8 T cells in healthy donor PBMCs; assay: Peptide deconvolution FluoroSpot, CD4-depleted PBMCs expanded with Class I MAPPs pool (IFN-γ); type: cell-based, human; settings: for T cell response in tested donors / donors with the predicted binding allele (in words) / % response in donors with allele(s): CD4-depleted PBMCs expanded with Class I MAPPs pool; for T cell response in tested donors / donors with the predicted binding allele (in words): IFN-γ FluoroSpot; for Total no. of responders: 24 healthy donors, CD4-depleted PBMCs expanded 10 days with Class I MAPPs pool, matrix pools 1 µg per peptide/mL, then individual peptide 2 µg/mL, ~24 h, positive = SI ≥1.4; for % response in donors with allele(s): responders among cohort donors expressing the peptide's predicted HLA binding allele(s)
# Experimental: For the identification of immunodominant CD8 T cell epitopes, the 41 HLA Class I MAPPs peptides were arranged in a matrix of 13 pools, each containing 6–7 peptides ( Supplementary Table 4 ). Per the matrix, each matrix pool was constructed by combining the peptides listed in each column or each row ([16]). Peptides present at the intersection of responding matrix pools were shortlisted and tested individually. All matrix pools were dissolved in 100% DMSO and tested at 1 µg per peptide/mL. For individual testing, peptides were dissolved in 100% DMSO and tested at 2 µg/mL. Matrix pools and individual peptides were synthesized by GenScript.
# Frozen PBMCs were thawed and resuspended in AIM V+ 5% SR at 1X10^6 cells/mL. Cells were stimulated with test peptide pools (1 µg per peptide/mL) and expanded in vitro for 10 days as described previously ([17]). On Days 4 and 7, cells were supplemented with a cytokine cocktail containing IL-2 (R&D Systems, 10 units/mL), IL-7 (R&D Systems, 10 ng/mL), and IL-15 (PeproTech, 10 ng/mL). On Day 10, cells were harvested, washed, and restimulated on precoated IFN-γ FluoroSpot plates (MabTech) in triplicates (125,000 cells/well). Peptide pools (1 µg per peptide/mL) or individual peptides (2 µg/mL, for deconvolution studies) were used for restimulation. Anti-CD3 antibody (MabTech, 100 ng/mL) and DMSO were used as positive and negative controls respectively. Plates were incubated at 37 degrees Celsius for ~ 24 hours and processed as described in the previous section.
# For experiments involving T cell depletion, CD4 T cells were depleted via magnetic separation using human CD4 Microbeads (Miltenyi Biotec) and an AutoMACS separator (Miltenyi Biotec) according to manufacturer’s instructions. Depleted cells were washed with MACS buffer prior to seeding on culture plates.
# For FluoroSpot assays, results were expressed as Spot Forming Units (SFU), calculated as the spot count per million PBMCs. The Stimulation Index (SI) was calculated as the average SFU in test wells/average SFU in DMSO control wells. For assays with fresh PBMCs, an SI of 2 or higher with a minimum of 50 SFU was counted as a positive IFN-γ/TNF-α response. For assays with expanded PBMCs, an SI of 1.4 or higher was set as the cutoff for a positive IFN-γ response. Predicted HLA binding alleles for each peptide were determined using MHCMotifDecon 1.0 as previously described ([13], [14], [23]). Predicted binding affinities for identified epitopes were determined using NetMHC 4.0 ([24]). Data tables and heatmaps were created using Excel. Data analysis and graphical representations were performed on Graph Pad Prism 10.
# To identify the immunodominant CD8 T cell epitopes within the HLA Class I MAPPs peptides, we utilized a system of matrix pools which facilitates rapid mapping of immunodominant epitopes when investigating a large number of peptides. The 41 HLA Class I MAPPs peptides were arranged into 13 matrix pools (MPs), each containing 6–7 peptides ( Supplementary Table 4 ). The matrix arrangement allows each Class I peptide to feature in two MPs, and a restimulation response to both MPs containing a specific peptide identifies putative immunodominant peptides that can be verified on an individual basis. Peptide deconvolution was performed on a cohort of 24 healthy donors. PBMCs were depleted of CD4 T cells and expanded as described before with the Class I MAPPs pool (41 peptides). Expanded PBMCs were restimulated on FluoroSpot assays with the 13 MPs.
# HLA-A*02:01 = HLA-A*02:01 (Homo sapiens, UniProt P04439, D140Y/D185E/D98H/E176V/E277Q/G131W/G231S/I119V/I121R/I166T/I218V/L300P/L318F/N151K/N90K/P208A/P217A/Q86G/Q94H/R138H/R169H/T345S); assay: biochemical
# Experimental: as §1
# HLA-B*27:05 = HLA-B*27:05 (Homo sapiens, UniProt P01889, D138H/D201E/E176V/E204Q/G107R/H137Y/K202T/N104T/N87E/Q56L/Q94K/R106L/R155S/R180L/S101D/S121N/S48T/Y140D/Y33H/Y91C); assay: Peptide/HLA binding affinity assay; settings: EC50 = peptide concentration at half saturation; HLA heavy chain refolded with varying peptide conc., 20–24 h, room temperature, ELISA 450 nm; <100 nM = high affinity
# Description: Plates were then developed using ELISA.
# HLA-A*01:01 = HLA-A*01:01 (Homo sapiens, UniProt P04439, A114D/A174V/A182V/D101N/D185E/E176A/E190D/L180R/Q94H/R68K/S129P/T187R/V100A/V91M/W191G); assay: biochemical
# Experimental: as §1
# HLA-B*40:01 = HLA-B*40:01 (Homo sapiens, UniProt P01889, A65T/A93T/A95T/D138N/D98Y/E176V/E69K/N87E/Q56L/Q94N/R180L/S121R/S35A/S48T/T167S/V36M/W171L/Y33H/Y91S); assay: biochemical
# Experimental: as §1
# HLA-C*07:01 = HLA-C*07:01 (Homo sapiens, UniProt P10321, K90N/S123Y); assay: biochemical
# Experimental: as §1
# HLA-C*03:03 = HLA-C*03:03 (Homo sapiens, UniProt P10321, A176E/A330V/A97T/C25G/C350S/D114A/D33Y/E197K/G115R/L119I/L127V/L171W/L218V/M285V/M309V/M331V/P208H/Q277E/Q291P/R243W/R45H/S123Y/S140Y/S297R/S48A/T118I/T187L/T329A/T363A/V319A); settings: C*03:03 measured as substitute for C*03:04; EC50 = peptide concentration at half saturation; refolding 20–24 h, room temperature, ELISA 450 nm; <100 nM = high affinity
# Experimental: as §1
# HLA-A*68:01 = HLA-A*68:01 (Homo sapiens, UniProt P04439, A269V/D185E/E176V/E277Q/E87N/F33Y/G231S/I121M/I166T/I218V/L180W/L300P/L318F/N151K/P208A/P217A/Q86R/R169H/T345S); assay: biochemical
# Experimental: as §1
compound,measurement,setting,value
CC(C)C[C@H](NC(=O)[C@H](Cc1c[nH]cn1)NC(=O)[C@H](CC(N)=O)NC(=O)[C@H](CC(N)=O)NC(=O)[C@H](Cc1ccc(O)cc1)NC(=O)[C@@H](NC(=O)[C@@H]1CCCN1C(=O)[C@@H](N)CC(C)C)[C@@H](C)O)C(=O)N[C@@H](Cc1ccc(O)cc1)C(=O)O [Peptide 11] (H-LPTYNNHLY-OH),EC50,HLA-B*35:01,96.7 nM
TDSDYQLPYVL [Peptide 13],T cell response in tested donors / donors with the predicted binding allele (in words),[1],elicited a T cell response
same,Responding donors,"[1]; peptide deconvolution in 24 healthy donors, '-' = no responding donor, IFN-γ, SI ≥1.4",Donor # 442
CC[C@H](C)[C@H](NC(=O)[C@@H](N)CC(C)C)C(=O)N[C@@H](CC(=O)O)C(=O)N[C@@H](CCC(N)=O)C(=O)N[C@@H](Cc1ccc(O)cc1)C(=O)N[C@@H](CC(C)C)C(=O)N[C@@H](Cc1ccc(O)cc1)C(=O)N[C@@H](Cc1ccc(O)cc1)C(=O)N[C@@H](CC(C)C)C(=O)O [Peptide 24] (H-LIDQYLYYL-OH),EC50,HLA-A*02:01,0.6 nM
CC(C)[C@H](NC(=O)[C@H](C)NC(=O)[C@H](CCCNC(=N)N)NC(=O)CN)C(=O)N[C@@H](Cc1ccccc1)C(=O)N[C@@H](CCC(N)=O)C(=O)N[C@@H](C)C(=O)N[C@@H](CCCCN)C(=O)N[C@@H](CCCCN)C(=O)O [Peptide 5] (H-GRAVFQAKK-OH),EC50,HLA-B*27:05,83.9 nM
CC[C@H](C)[C@H](NC(=O)[C@@H]1CCCN1C(=O)[C@H](CCCNC(=N)N)NC(=O)[C@@H]1CCCN1C(=O)[C@H](CCC(=O)O)NC(=O)[C@H](CO)NC(=O)[C@@H](N)Cc1ccc(O)cc1)C(=O)NCC(=O)N[C@H](C(=O)N[C@@H](CCCNC(=N)N)C(=O)N[C@@H](Cc1ccc(O)cc1)C(=O)O)[C@@H](C)O [Peptide 41] (H-YSEPRPIGTRY-OH),EC50,HLA-A*01:01,16.3 nM
CC(C)C[C@H](N)C(=O)N[C@@H](CCCNC(=N)N)C(=O)N[C@H](C(=O)NCC(=O)N[C@@H](CC(N)=O)C(=O)N[C@@H](CC(N)=O)C(=O)N[C@@H](Cc1ccccc1)C(=O)N[C@@H](CCC(N)=O)C(=O)N[C@@H](Cc1ccccc1)C(=O)O)[C@@H](C)O [Peptide 20] (H-LRTGNNFQF-OH),EC50,HLA-B*27:05,122 nM
"QPAKKRLNF [Peptide 7, predicted allele B*07:02]",Total no. of responders,[1]; IFN-γ,0
same,T cell response in tested donors / donors with the predicted binding allele (in words),[1],did not elicit a response
same,% response in donors with allele(s),"[1]; IFN-γ, SI ≥1.4",0/6 (0%)
CSCC[C@H](NC(=O)[C@H](CCC(N)=O)NC(=O)[C@H](CO)NC(=O)[C@@H]1CCCN1C(=O)[C@H](Cc1ccccc1)NC(=O)[C@H](Cc1ccc(O)cc1)NC(=O)[C@H](CCC(=O)O)NC(=O)[C@@H](N)CC(C)C)C(=O)N[C@@H](CC(C)C)C(=O)O [Peptide 19] (H-LEYFPSQML-OH),EC50,HLA-B*40:01,0.1 nM
CC(C)C[C@H](NC(=O)[C@H](C)NC(=O)[C@H](Cc1c[nH]c2ccccc12)NC(=O)[C@@H](NC(=O)[C@H](CCCNC(=N)N)NC(=O)[C@@H](N)[C@@H](C)O)[C@@H](C)O)C(=O)N1CCC[C@H]1C(=O)N[C@H](C(=O)N[C@@H](Cc1ccc(O)cc1)C(=O)O)[C@@H](C)O [Peptide 10] (H-TRTWALPTY-OH),EC50,HLA-C*07:01,> 10000 nM
same,EC50,HLA-B*27:05,120 nM
CC(C)[C@H](NC(=O)[C@H](CC(N)=O)NC(=O)[C@H](CCC(=O)O)NC(=O)[C@H](Cc1ccccc1)NC(=O)[C@H](CCC(=O)O)NC(=O)[C@H](Cc1ccc(O)cc1)NC(=O)[C@H](CO)NC(=O)[C@H](Cc1ccccc1)NC(=O)[C@H](CCC(N)=O)NC(=O)[C@@H](N)Cc1ccccc1)C(=O)O [Peptide 21] (H-FQFSYEFENV-OH),EC50,HLA-A*02:01,0.6 nM
"SQAVGRSSF [Peptide 17, predicted allele B*15:01]",Total no. of responders,[1]; IFN-γ,0
same,T cell response in tested donors / donors with the predicted binding allele (in words),[1],did not elicit a response
same,% response in donors with allele(s),"[1]; IFN-γ, SI ≥1.4",0/2 (0%)
CSCC[C@H](NC(=O)[C@H](CC(N)=O)NC(=O)[C@H](CO)NC(=O)[C@@H]1CCCN1C(=O)CNC(=O)[C@H](C)NC(=O)[C@@H](NC(=O)[C@@H](N)CO)C(C)C)C(=O)N[C@@H](C)C(=O)N[C@H](C(=O)N[C@@H](CCC(N)=O)C(=O)NCC(=O)N[C@@H](CCCNC(=N)N)C(=O)O)C(C)C [Peptide 26] (H-SVAGPSNMAVQGR-OH),"Binding affinity (nM), C*03:03",HLA-C*03:03,Non-binder
same,EC50,HLA-A*68:01,1.9 nM
CSCC[C@H](NC(=O)[C@H](CC(N)=O)NC(=O)[C@H](CO)NC(=O)[C@@H]1CCCN1C(=O)CNC(=O)[C@H](C)NC(=O)[C@@H](N)C(C)C)C(=O)N[C@@H](C)C(=O)N[C@H](C(=O)O)C(C)C [Peptide 27] (H-VAGPSNMAV-OH),"Binding affinity (nM), A*68:01","HLA-A*68:01; EC50 = peptide concentration at half saturation, HLA heavy chain refolded with varying peptide conc., 20–24 h, room temperature, ELISA 450 nm, <100 nM = high affinity",Non-binder
